Measured values: US10793552B2, “Amino pyrimidine ssao inhibitors” (Eli Lilly and Company, priority 2016, dated 2020)
Read-outs that look alike come from different tables or passages of the source.

How the values were obtained:
Assay type in all cases: in vivo
[1] = molecular target: SSAO (Rattus norvegicus (Rat), UniProt O08590); test: SSAO Target Engagement in rat plasma and liver; conditions: for activity at 0.005 mg/kg / activity at 0.025 mg/kg / activity at 0.12 mg/kg / activity at 0.6 mg/kg / activity at 3 mg/kg / activity at 15 mg/kg: mean ± SEM
Experimental: The SSAO activity in rat plasma and liver tissues are measured using the MAO-Glo™ assay kit from Promega (V1402). The residual SSAO activity in rats after compound treatment is estimated by measuring the total amine oxidase activity in plasma or liver lysates that are insensitive to the presence of the MAO inhibitor Clogyline and Pargyline. Rats are administered the compound of Example 2 at the doses of 15, 3, 0.6, 0.12, 0.025, 0.005 mg/kg. The control group is administered with the same volume (2 ml/kg) of the dosing vehicle (hydroxyethyl cellulose 1% w/v, 0.25% Tween 80). Plasma and liver at 2 or 24 hours post compound treatment are harvested and stored at −78° C. until analysis. Tissue lysates are prepared by homogenization in a lysis buffer (20 mM HEPES, pH 7.4, 150 mM NaCl, 1 mM EDTA, 1 mM EGTA, 1% Triton X-100 and 1× Roche Complete protease inhibitor tablet). Tissue particles are removed by centrifugation at 12,000 rpm at 4° C. for 30 minutes. 40 μl of plasma or liver lysates is incubated with Clogyline (10 μM) and Pargyline (10 μM) for 20 minutes at room temperature before the addition of the luminogenic substrate (50 μM) for 60 minutes. The product generated is quantified according to the manufacture's procedure. The fraction of activity that is insensitive to the presence of the MAO inhibitors is used as the surrogate for the residual SSAO activity. The compound of Example 2 was evaluated in the protocol essentially as described above administered at various doses.

[2] = tested on: C57BL/6N mice fed 3H diet; test: Mouse Model of NASH and Fibrosis Induced by 3H Diet; conditions: mouse 3H diet; for Score (0-3) Hepatic inflammation Left / Score (0-3) Macrovesicular vaculation Left / Score (0-3) Perisinusoidal fibrosis Left: left lobe; for Score (0-3) Hepatic inflammation Left / Score (0-3) Macrovesicular vaculation Left / Score (0-3) Perisinusoidal fibrosis Left / Score (0-3) Hepatic inflammation Right / Score (0-3) Macrovesicular vaculation Right / Score (0-3) Perisinusoidal fibrosis Right: mean ± SEM; for Score (0-3) Hepatic inflammation Right / Score (0-3) Macrovesicular vaculation Right / Score (0-3) Perisinusoidal fibrosis Right: right lobe
Experimental: Male C57BL/6N mice are fed with D09100301 diet (Research Diets, 40% fat, 2% cholesterol, 24% fructose, (the, high fat, high cholesterol and high fructose, the “3H diet”) for 150 days. Each mouse is then singly housed after 5 days for an acclimation period. Plasma alanine aminotransferase (ALT) and cytokeratin 18 (CK18) are measured. After one week of recovery, the mice are randomized into 5 groups based on their ALT values, CK18 values, and body weight. […] Blood is collected from mice treated with the compound of Example 6 for 76 days 2 hours after the last dose. Compound levels in the plasma are analyzed by mass spectroscopy. […] At the completion of the study, the animals are sacrificed and their livers excised. Two sections of the left and right lobes are fixed in neutral buffered 10% formalin. Liver tissue slides are stained with hematoxylin and eosin (H&E), Sirius red, and Masson's Trichrome to prepare slides for pathological analysis. All specimens are examined microscopically and scored as a modified Brunt score NASH Activity Score. Scores are based on the grading scheme and end-points as described in Brunt E. M. et al., “Histopathology of nonalcoholic fatty liver disease,” World J. of Gastroenterol, 2010, 16(42), 5286-5296. Group means are then calculated for each individual end-point. The following endpoints are used to characterize the fast food model of NASH in mice as modified from NASH endpoints (See Brunt, E. M. “Histopathology of nonalcoholic fatty liver disease,” Clin Liver Dis., 2009, 13, 533-544 and Brunt, E. M, et al., “Nonalcoholic steatohepatitis: A proposal for grading and staging the histological lesions”, Am J Gastroenterology, 1999, 94(9), 2467-2474.

[3] = Plasma compound levels in 3H diet mice by mass spectroscopy; conditions: mouse, treated 76 days, 2 hours after the last dose, all doses
Experimental: Male C57BL/6N mice are fed with D09100301 diet (Research Diets, 40% fat, 2% cholesterol, 24% fructose, (the, high fat, high cholesterol and high fructose, the “3H diet”) for 150 days. Each mouse is then singly housed after 5 days for an acclimation period. Plasma alanine aminotransferase (ALT) and cytokeratin 18 (CK18) are measured. After one week of recovery, the mice are randomized into 5 groups based on their ALT values, CK18 values, and body weight. Animals of each group are administrated either vehicle (0.5% methylcellulose (MC)+0.25% Tween 80 in distilled water) or the compound of Example 6 (at a 0.06, 2, 6, and 20 mg/kg dose) once daily in a volume of 5 ml/kg for 11 weeks. Blood is collected from mice treated with the compound of Example 6 for 76 days 2 hours after the last dose. Compound levels in the plasma are analyzed by mass spectroscopy.

[4] = liver, 24 hour, n = 6, read-out: SSAO Activity (%) Liver 24 hour
[5] = plasma, 2 hour, n = 6, read-out: SSAO Activity (%) Plasma 2 hour
[6] = plasma, 24 hour, n = 6, read-out: SSAO Activity (%) Plasma 24 hour
[7] = 20 mg/kg once daily 11 weeks, p < 0.05 vs vehicle

Sequence of SSAO (O08590 whole entry): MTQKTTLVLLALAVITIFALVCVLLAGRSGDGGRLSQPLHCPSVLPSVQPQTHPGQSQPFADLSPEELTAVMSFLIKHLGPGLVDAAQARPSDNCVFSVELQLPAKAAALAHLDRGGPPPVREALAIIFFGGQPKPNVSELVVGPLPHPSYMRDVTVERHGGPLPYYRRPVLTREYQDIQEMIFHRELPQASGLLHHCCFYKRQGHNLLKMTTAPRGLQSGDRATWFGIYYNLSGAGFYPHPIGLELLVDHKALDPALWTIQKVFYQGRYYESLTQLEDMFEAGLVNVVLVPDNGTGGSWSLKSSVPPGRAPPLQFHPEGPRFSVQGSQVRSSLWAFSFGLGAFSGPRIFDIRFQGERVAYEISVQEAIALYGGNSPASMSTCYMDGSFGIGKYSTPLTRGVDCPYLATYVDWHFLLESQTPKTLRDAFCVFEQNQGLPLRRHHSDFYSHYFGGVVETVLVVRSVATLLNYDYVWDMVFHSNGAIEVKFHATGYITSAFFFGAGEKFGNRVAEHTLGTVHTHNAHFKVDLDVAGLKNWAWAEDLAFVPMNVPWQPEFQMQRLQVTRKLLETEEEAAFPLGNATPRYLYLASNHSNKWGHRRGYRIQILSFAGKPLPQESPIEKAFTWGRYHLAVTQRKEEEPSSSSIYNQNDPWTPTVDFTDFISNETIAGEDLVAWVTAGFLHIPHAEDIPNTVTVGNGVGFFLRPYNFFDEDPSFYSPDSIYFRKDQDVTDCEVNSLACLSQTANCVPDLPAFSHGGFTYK

## Cl.Cl.NC/C(=C\F)COc1cnc(N2CCC(O)CC2)nc1 [Example 2, 1-[5-[(E)-2-(Aminomethyl)-3-fluoro-allyloxy]pyrimidin-2-yl]piperidin-4-ol dihydrochloride]
[1]; [4]
  activity at 0.005 mg/kg: 75 ± 18%
  activity at 0.025 mg/kg: 68 ± 14%
  activity at 0.12 mg/kg: 45 ± 8%
  activity at 0.6 mg/kg: 16.2 ± 2.9%
  activity at 3 mg/kg: 7.1 ± 1.7%
  activity at 15 mg/kg: 9.6 ± 2.6%
[1]; [5]
  activity at 0.005 mg/kg: 31 ± 3%
  activity at 0.025 mg/kg: 21 ± 1%
  activity at 0.12 mg/kg: 7 ± 1%
  activity at 0.6 mg/kg: 4.3 ± 0.8%
  activity at 3 mg/kg: 3.6 ± 1%
  activity at 15 mg/kg: -0.6 ± 0.3%
[1]; [6]
  activity at 0.005 mg/kg: 70 ± 7%
  activity at 0.025 mg/kg: 55 ± 9%
  activity at 0.12 mg/kg: 35 ± 4%
  activity at 0.6 mg/kg: 16.3 ± 2.6%
  activity at 3 mg/kg: 8.8 ± 1.3%
  activity at 15 mg/kg: 6.6 ± 1.8%
[1]; doses 0.005 to 15 mg/kg
  inhibition of SSAO activity in rat plasma and liver: dose-dependently inhibits SSAO activity

## Cl.Cl.NC/C(=C\F)COc1cnc(N2CC[C@H](O)C2)nc1 [Example 6, (3S)-1-[5-[(E)-2-(Aminomethyl)-3-fluoro-allyloxy]pyrimidin-2-yl]pyrrolidin-3-ol; Dihydrochloride]
[2]; 0.6 mg/kg once daily 11 weeks
  Score (0-3) Hepatic inflammation Left: 2.6 ± 0.1
  Score (0-3) Macrovesicular vaculation Left: 2.5 ± 0.1
  Score (0-3) Perisinusoidal fibrosis Left: 2.4 ± 0.2
  Score (0-3) Hepatic inflammation Right: 2.5 ± 0.1
  Score (0-3) Macrovesicular vaculation Right: 2.6 ± 0.1
  Score (0-3) Perisinusoidal fibrosis Right: 1.9 ± 0.2
[2]; 2 mg/kg once daily 11 weeks
  Score (0-3) Hepatic inflammation Left: 2.5 ± 0.1
  Score (0-3) Macrovesicular vaculation Left: 2.5 ± 0.1
  Score (0-3) Perisinusoidal fibrosis Left: 2.5 ± 0.2
  Score (0-3) Hepatic inflammation Right: 2.6 ± 0.1
  Score (0-3) Macrovesicular vaculation Right: 2.7 ± 0.1
  Score (0-3) Perisinusoidal fibrosis Right: 1.8 ± 0.2
[2]; 6 mg/kg once daily 11 weeks
  Score (0-3) Hepatic inflammation Left: 2.5 ± 0.2
  Score (0-3) Macrovesicular vaculation Left: 2.9 ± 0.1
  Score (0-3) Perisinusoidal fibrosis Left: 2.6 ± 0.2
  Score (0-3) Hepatic inflammation Right: 2.6 ± 0.2
  Score (0-3) Macrovesicular vaculation Right: 2.7 ± 0.1
  Score (0-3) Perisinusoidal fibrosis Right: 2.1 ± 0.3
[2]; 20 mg/kg
  hepatic inflammation (in words): significant decrease
  macrovesicular vaculation (in words): significant decrease
  perisinusoidal fibrosis (in words): significant decrease
[2]; 20 mg/kg once daily 11 weeks
  Score (0-3) Macrovesicular vaculation Left: 2.4 ± 0.2
  Score (0-3) Perisinusoidal fibrosis Left: 1.9 ± 0.2
[2]; 20 mg/kg once daily 11 weeks, p < 0.01 vs vehicle
  Score (0-3) Hepatic inflammation Left: 2.1 ± 0.1
[2]; [7]
  Score (0-3) Hepatic inflammation Right: 2.1 ± 0.1
  Score (0-3) Macrovesicular vaculation Right: 2.3 ± 0.1
  Score (0-3) Perisinusoidal fibrosis Right: 1.5 ± 0.2
[2]; 6 and 20 mg/kg
  triglyceride levels in blood (in words): decreased triglyceride levels
[2]; all treated groups
  ALT (in words): significant decrease
[3]
  plasma compound levels (in words): dose-dependent increase
